# Measured values taken from US20200046835A1, “Systems, Methods, and Compositions For Cross-Linking Treatments of an Eye” (Avedro, Inc., priority 2014, published 2020).
# Assays:
# corneal collagen [1] = assay: Papain digest fluorescence of pig corneal flaps (collagen cross-linking); settings: for fluorescence of the corneal samples after digestion with papain (excitation 360 nm), compared to controls not exposed to UV: phosphate buffer, UV 365 nm, 30 mW/cm^2, pulsed 1 s on:1 s off, 8 min, oxygen; for fluorescence (relative to untreated controls) recorded at 450 nm: FeSO4 0.5 mM added to 0.1% riboflavin
# Experimental: Corneal flaps were soaked in either distilled water or diluted H2O2 (1%) for 20 minutes. Flaps soaked in H2O2 were either rinsed twice with distilled water or removed from H2O2 and placed in 0.1% FeSO4 solution in distilled water for an additional 20 minute soak followed by a 2× rinse with distilled water. Flaps were dried in a vacuum until the weight change became less than 10% (Rotary vane vacuum pump RV3 A652-01-903, BOC Edwards, West Sussex, UK). Each flap was digested for 2.5 hours at 65° C. with 2.5 units/ml of papain (from Papaya latex, Sigma) in 1 ml of papain buffer [EBBS (pH 7.0-7.2), 2 mM L-cysteine and 2 mM EDTA]. Papain digests were centrifuged for 5 seconds at 2200×G (Mini centrifuge 05-090-100, Fisher Scientific), diluted 0.5 times with BBBS and fluorescence of the solutions was measured with excitation of λex=360 nm in a QM-40 Spectrofluorometer (Photon Technology Int., London, Ontario, Canada). The fluorescence of the papain buffer was taken into account by measuring fluorescence in the absence of tissue and subtracting this value from the fluorescence of the samples. […]
# (§1) Pig eyes were shipped overnight on ice from an abattoir (SiouxPreme, Sioux City, Iowa), rinsed in saline. Eyes were cleaned and epithelium was removed. […] If specified, eyes were placed in a beaker with a light oxygen stream for 2 minutes in the incubation chamber prior to irradiation. Corneas were pan-corneally irradiated with a top hat beam (3% root mean square) for the chosen time (4 or 8 minutes) with 365-nm light source (UV LED NCSU033B[T]; Nichia Co., Tokushima, Japan) at the chosen irradiance (30 mW/cm^2, pulsed or non-pulsed) which was measured with a power sensor (model PD-300-UV; Ophir, Inc., Jerusalem, Israel) at the corneal surface. Corneal flaps (approximately 200 μm thick) were excised from the eyes with aid of Intralase femtosecond laser (Abbot Medical Optics, Santa Ana, Calif.). The average thickness of the corneal flaps was calculated as a difference between the measurements before and after the excision from the eyes with an ultrasonic Pachymeter (DGH Technology, Exton, Pa.). The flaps were placed into a biaxial extensometer (CellScale Biotester 5000, Waterloo, ON), using biorake attachments with 5 tines spanning a width of 3 mm. Each sample was stretched at a constant rate of 4 μm/s in saline at 37° C. until sample failure. The flaps were washed with distilled water 2 times, dried with filter paper, washed with dH2O two times, and then dried in a vacuum until the weight change became less than 10% (Rotary vane vacuum pump RV3 A652-01-903, BOC Edwards, West Sussex, UK). Each flap was digested for 2.5 hours at 65° C. with 2.5 units/ml of papain (from Papaya latex, Sigma) in 1 ml of papain buffer [BBBS (pH 7.0-7.2), 2 mM L-cysteine and 2 mM EDTA]. Papain digests were centrifuged for 5 seconds at 2200×G (Mini centrifuge 05-090-100, Fisher Scientific), diluted 0.5 times with 1× BBBS and fluorescence of the solutions was measured with excitation of λex=360 nm in a QM-40 Spectrofluorometer (Photon Technology Int., London, Ontario, Canada). The fluorescence of the papain buffer was taken into account by measuring fluorescence in the absence of tissue and subtracting this value from the fluorescence of the samples.
# (§2) Oxygen was supplied continuously to the beaker during the time of exposure.
# as §2
# corneal collagen [2] = assay: Biaxial extensometry (tensiometry) of pig corneal flaps; settings: for stiffening of corneal sample (displacement vs. force curves), compared to the unexposed controls: phosphate buffer, UV 365 nm, 30 mW/cm^2, pulsed 1 s on:1 s off, 8 min, oxygen; for corneal stiffness (displacement-force diagrams): 1% solution in dH2O
# Experimental: as §1, §2
# Oxygen was supplied continuously to the beaker during the time of exposure. Corneal flaps were cut at approximately 200 μm.
# Pig eyes were shipped overnight on ice from an abattoir (SiouxPreme, Sioux City, Iowa), rinsed in saline. Eyes were cleaned and epithelium was removed. […] Corneas were pan-corneally irradiated with a top hat beam (3% root mean square) for 4 minutes with 365-nm light source (UV LED NCSU033B[T]; Nichia Co., Tokushima, Japan) at irradiance 30 mW/cm^2, which was measured with a power sensor (model PD-300-UV; Ophir, Inc., Jerusalem, Israel) at the corneal surface. Corneal flaps (approximately 200 μm thick) were excised from the eyes with aid of Intralase femtosecond laser (Abbott Medical Optics, Santa Ana, Calif.). The average thickness of the corneal flaps was calculated as a difference between the measurements before and after the excision from the eyes with an ultrasonic Pachymeter (DGH Technology, Exton, Pa.). The flaps were then placed into a biaxial extensometer (CellScale Biotester 5000, Waterloo, ON), using biorake attachments with 5 tines spanning a width of 3 mm. Each sample was stretched at a constant rate of 4 μm/s in saline at 37° C. until sample failure. The flaps were washed with distilled water, dried in a vacuum until the weight change became less than 10% (Rotary vane vacuum pump RV3 A652-01-903, BOC Edwards, West Sussex, UK). Each flap was digested for 2.5 h at 65° C. with 2.5 units/ml of papain (from Papaya latex, Sigma) in 1 ml of papain buffer [EBBS (pH 7.0-7.2), 2 mM L-cysteine and 2 mM EDTA].
# human serum albumin = human serum albumin (Homo sapiens, UniProt P02768); settings: irradiated in the presence of human serum albumin; cited from earlier work
# corneal collagen [3] = assay: Papain digest fluorescence of pig corneal flaps (collagen cross-linking); settings: 0.1% in BBBS, de-oxygenated with argon, irradiated 4 min at 30 mW/cm^2 in CO2 atmosphere
# [4] = 0.4% in PBS, UVA 30 mW/cm2, 4 min CW or 8 min pulsed with O2
# Chain of human serum albumin (P02768 25-609): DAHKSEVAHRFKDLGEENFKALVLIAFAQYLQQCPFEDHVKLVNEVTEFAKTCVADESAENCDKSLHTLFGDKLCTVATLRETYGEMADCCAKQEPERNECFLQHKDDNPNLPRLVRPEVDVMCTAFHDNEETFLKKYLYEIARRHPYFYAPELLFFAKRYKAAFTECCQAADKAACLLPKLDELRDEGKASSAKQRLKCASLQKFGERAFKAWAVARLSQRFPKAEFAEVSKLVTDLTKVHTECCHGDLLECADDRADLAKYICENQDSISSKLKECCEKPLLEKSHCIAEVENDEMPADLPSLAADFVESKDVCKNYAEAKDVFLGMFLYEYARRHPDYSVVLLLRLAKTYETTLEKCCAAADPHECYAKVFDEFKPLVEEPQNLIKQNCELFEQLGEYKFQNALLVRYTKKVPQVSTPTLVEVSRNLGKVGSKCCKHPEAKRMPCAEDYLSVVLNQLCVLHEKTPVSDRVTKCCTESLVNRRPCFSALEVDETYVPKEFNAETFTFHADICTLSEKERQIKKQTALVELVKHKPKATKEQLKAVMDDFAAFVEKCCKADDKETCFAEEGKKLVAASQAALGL
structure (smiles),measurement,setting,value
"OO [H2O2, hydrogen peroxide]",fluorescence counts of papain digested corneal flaps (cross-linking),"corneal collagen [1]; 1% H2O2 soak 20 min, with or without following 0.1% Iron(II) soak 20 min, no UV",not
"Cc1cc2nc3c(=O)[nH]c(=O)nc-3n(C[C@H](O)[C@H](O)[C@H](O)CO)c2cc1C [0.1% riboflavin, riboflavin]",average force vs. displacement measured by tensiometry,"corneal collagen [2]; CW UVA 30 mW/cm^2, 4 min, relative to controls",higher than the control group
same,"stiffening of corneal sample (displacement vs. force curves), compared to the unexposed controls",corneal collagen [2],significant stiffening
same,"fluorescence of the corneal samples after digestion with papain (excitation 360 nm), compared to controls not exposed to UV",corneal collagen [1],increases
"Nc1nc2ncc(CNc3ccc(C(=O)N[C@@H](CCC(=O)O)C(=O)O)cc3)nc2c(=O)[nH]1 [FA, Folic acid]","stiffening of corneal sample (displacement vs. force curves), compared to the unexposed controls",corneal collagen [2],significant stiffening
same,"fluorescence of the corneal samples after digestion with papain (excitation 360 nm), compared to controls not exposed to UV",corneal collagen [1],increases
"Cc1c(C(=O)NCCO)[n+]([O-])c2ccccc2[n+]1[O-] [Olaquindox, N-(2-hydroxyethyl)-3-methyl-2-quinoxalinecarboxamide 1,4-dioxide]",stiffness by biaxial extensiometry of 200 μm thick corneal flaps,corneal collagen [2]; [4],became stiffer
same,relative fluorescence recorded at 450 nm of the cross-linked flaps,corneal collagen [1]; [4],acquired fluorescence at 450 nm
same,time to complete disappearance on irradiation,human serum albumin,≤ 20 s
"CC(=O)C(C)=O [2,3-butanedione]",corneal stiffness (displacement-force diagrams),"corneal collagen [2]; with UV light 365 nm, 30 mW for 4 min",increase
same,corneal stiffness (displacement-force diagrams),corneal collagen [2]; without UV light,does not cross-link corneal flaps
same,"fluorescence output (relative to the untreated controls, Fo) recorded at 450 nm","corneal collagen [1]; 1% solution in dH2O, with UV light 365 nm, 30 mW for 4 min",increase
same,"fluorescence (relative to the untreated controls, Fo) recorded at 450 nm","corneal collagen [1]; 1% solution in dH2O, without UV light",does not cross-link corneal flaps
"O=S(=O)([O-])[O-].[Fe+2] [FeSO4, Iron(II) Sulfate]",average force vs. displacement measured by tensiometry (biaxial tension),"corneal collagen [2]; PW+O2, UVA 30 mW/cm^2, 8 min (1 s on:1 s off), versus 0.1% riboflavin",increase in biaxial tension
same,fluorescence (relative to untreated controls) recorded at 450 nm,"corneal collagen [1]; CW UVA 30 mW/cm^2, 4 min",increase in fluorescence
same,fluorescence (relative to untreated controls) recorded at 450 nm,"corneal collagen [1]; PW+O2, UVA 30 mW/cm^2, 8 min (1 s on:1 s off)",increase in fluorescence
"Cc1cc2nc(C(=O)[O-])c(=O)n(C[C@H](O)[C@H](O)[C@H](O)CO)c2cc1C.O.[Na+] [sodium salt of 1,2-Dihydro-6,7-dimethyl-2-keto-1-D-ribityl-3-quinoxalinecarboxylic acid monohydrate]",fluorescence of the digested corneas in the area 450 nm,"corneal collagen [1]; 0.1% in BBBS, no epithelium, 20 min soak, 30 mW/cm^2 for 4 min continuous UVA",elevated fluorescence
same,"fluorescence of the digested corneal flaps (excitation 360 nm), compared with riboflavin",corneal collagen [3],higher than the fluorescence of the corneal flaps cross-linked with riboflavin
